From patent publication US20240400547A1, “2,6-PIPERIDINEDIONE COMPOUND AND APPLICATION THEREOF” (MEDSHINE DISCOVERY INC., priority 2021, published 2024)
Structures can show the parent of a compound that is named as a salt.

What was measured:
IRAK4 = biological target: T1, IRAK4 (Homo sapiens, UniProt Q9NWZ3); assay: Target protein degradation in K562 IRAK4-HiBiT cells (Nano-Glo HiBiT); assay type: cell-based; details: 16 to 18 hours; for Dmax: read-out: Maximum degradation rate
T1 construct: expressed in transfected cells; host or cells: K562 IRAK4-HiBiT cells
T1 sequence (Q9NWZ3 1-460): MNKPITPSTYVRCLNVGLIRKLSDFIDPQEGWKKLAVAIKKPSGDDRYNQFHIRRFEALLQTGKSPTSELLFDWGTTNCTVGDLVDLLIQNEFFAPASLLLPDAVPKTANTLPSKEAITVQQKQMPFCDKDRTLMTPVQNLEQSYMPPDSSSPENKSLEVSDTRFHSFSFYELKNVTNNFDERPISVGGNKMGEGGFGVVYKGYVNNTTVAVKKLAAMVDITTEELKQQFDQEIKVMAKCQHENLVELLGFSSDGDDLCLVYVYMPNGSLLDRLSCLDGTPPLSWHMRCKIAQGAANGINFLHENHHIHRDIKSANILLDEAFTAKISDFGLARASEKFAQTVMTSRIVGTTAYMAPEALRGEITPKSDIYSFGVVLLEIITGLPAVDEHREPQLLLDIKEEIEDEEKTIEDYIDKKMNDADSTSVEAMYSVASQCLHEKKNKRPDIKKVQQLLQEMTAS
Protocol: Experimental objective: The experiment aims to evaluate the degradation effect of the test compounds on the target protein IRAK4 in K562 IRAK4-HiBiT cells.
• Cells: K562 IRAK4-HiBiT cells • Culture medium: RPMI 1640+10% fetal bovine serum+2 mM glutamine+1 mM sodium pyruvate+penicillin/streptomycin. • Positive control: 1000 nM; negative control: 0.1% DMSO.
• (1). The powder of the compound to be tested was dissolved in DMSO to a storage concentration of 10 mM. A total of 9 μL of the 10 mM of the compound to be tested was manually pipetted into the 1st and 13th columns of the LDV plate using a pipettor; • (2). A volume of 6 μL of DMSO was added to columns 2-12 and 14-24 using a Multidrop Combi; • (3). A 3-fold dilution of the test compounds (3 μL+6 μL) was performed using Bravo, for columns 1-11 and 13-23; • (4). According to the plate layout, 25 nL of compound solution (columns 1-24 of the LDV plate) was transferred to the experimental plate using Echo; • (5) 25 nL of the 1 mM positive control solution was transferred to the assay plate as a 100% degradation control (i.e. LC, HPE), and 25 nL of DMSO was transferred to the assay plate as a 0% control (i.e. HC, ZPE).
• (1) The culture medium was discarded, and the cells were washed once with DPBS, digested with trypsin, counted, and prepared into a cell suspension of […]. • (2) Using the MultiDrop Combi at a medium speed, 25 μL/well of the cell suspension was added to the experimental plate containing the test compounds; • (3) The experimental plate containing cells was returned to the incubator and cultured for 16 to 18 hours at 37° C. and 5% CO2.
• (1). Using the MultiDrop Combi at a high speed, 25 μL/well of the assay reagent (NanoGlo lytic solution+substrate+LgBit protein) was added to the assay plate, followed by shaking for 10 minutes; • (2) The plate was centrifuged at 2000 rpm for 1 minute to remove any bubbles; • (3) Readings were obtained by using an Envision, US Luminescence reader.
To calculate the degradation rate (DR) of the test compounds, the following formula is used: IR (%)=(RLU vehicle control−RLU compound)/(RLU vehicle control−RLU positive control)×100%. The solvent control refers to the blank control. The degradation rates of compounds at different concentrations were calculated in Excel, and then XLFit software was used to plot inhibition curves and calculate relevant parameters, including minimum degradation rate, maximum degradation rate, and DC50.

IKZF1 = biological target: T2, IKZF1 (Homo sapiens, UniProt Q13422+Q96SW2); assay: In Cell Western of IKZF1 protein expression level in MM.1S cells; assay type: cell-based; details: IKZF1, MM.1S cells, 24 hours; for Dmax: MM1.S, read-out: Maximum degradation rate Dmax
T2 construct: host or cells: MM.1S cells
Protocol: Experimental objective: The experiment aims to assess the degradation effect of the test compounds on IKZF1 and 1KZF3 proteins in MM.1S cells by evaluating the impact of the test compounds on the expression levels of IKZF1 and IZKZF3 proteins in MM.1S cells.
• Cell lines: MMN.1 S cell (sourced from ATCC; Cat. No CRL-2974) • Negative control: 0.100 DMSO.
• 1) Log phase MM.1 S cells were plated in a 96-well plate at 1.2×10^5 cells per well and cultured overnight; • 2) The next day, compounds were added with a starting concentration of 300 nM, diluted threefold across three replicate wells for 10 concentration gradients (including DMSO), and the cells were incubated for 24 hours in an incubator; • 3) The cells were centrifuged, and the supernatant was carefully removed. 150 μL of 4% paraformaldehyde fixative was added along the wall of the wells, avoiding contact with the bottom cells, and the cells were incubated at room temperature for 20 minutes; • 4) Lysis buffer was prepared by mixing 0.5 mL of 10% Triton X-100 with 49.5 mL of PBS until homogenous; • 5) 200 μL of lysis buffer was added along the well walls, again avoiding the bottom cells, and incubated on a shaker at room temperature for 5 minutes; • 6) The wells were washed four times; • 7) 150 μL of Licor […] Blocking Buffer was added along the well walls, avoiding the bottom cells, and the cells were incubated on a shaker at room temperature for 1.5 hours; • 8) Ikaros (D6N9Y) Rabbit mAb, Aiolos (D1C1E) Rabbit mAb and GAPDH mouse mAb (proteintech, 60004-1-Ig) were diluted at a 1:100 ratio using antibody dilution buffer; • 9) 50 μL of mixed antibody was added to each well with three replicate wells, and the cells were incubated overnight on a shaker at 4° C.; • 10) PBST (PBS with 0.1% Tween 20) was prepared; • 11) The primary antibodies were removed, and 200 μL of PBST was added along the well walls, avoiding the bottom cells, and the cells were incubated on a shaker at room temperature for 5 minutes; • 12) The wells were washed four times; • 13) Secondary antibody dilution buffer was prepared by adding Tween 20 to Licor […] Blocking Buffer to a final concentration of 0.2%; • 14) Fluorescent secondary antibodies were diluted in the dark at a 1:800 ratio. To 400 μL of secondary antibody dilution solution, 0.5 μL of each IRDye 800CW and IRDye 680CW (corresponding to the primary antibodies) was added. • 15) 50 μL of the diluted fluorescent secondary antibodies was added to each well and the cells were incubated on a shaker at room temperature in the dark for 60 minutes; • 16) The secondary antibodies were removed, and 200 μL of PBST was added along the well walls, avoiding the bottom cells, and the cells were incubated on a shaker at room temperature in the dark for 5 minutes; • 17) The wells were washed four times; immediately after washing, the Odyssey Gel Imaging System was used for detection at dual wavelengths of 700 nm and 800 nm.
Using GraphPad Prism 6 software, inhibition rate data was entered to fit the curve and calculate the DC50 value.

[1] = Pharmacokinetic evaluation in mice; assay type: in vivo, C57BL/6N or CD-1 male mice; details: intragastric administration 10 mg/kg, experimental operation A, fasted overnight
From the text: In this study, C57BL/6N or CD-1 male mice were selected as test animals, and LC/MS/MS method was used to quantify plasma concentrations of the test compound intravenously injected or gavage to mice at different time points, so as to evaluate the pharmacokinetic profile of the compounds of the present disclosure in mice.
C57BL/6N mice (male, 20 to 30 g, 7 to 10 weeks old, Beijing VitalRiver) or CD-1 mice (male, 20 to 35 g, 7 to 10 weeks old, Beijing VitalRiver).
• The test compounds, either as clear or suspension solutions, were administered intravenously through the tail vein to C57BL/6N mice or CD-1 mice (either fasted overnight or fed) (vehicle: 10% DMSO/10% solutol/80% H2O or 5% DMSO/10% solutol/85% H2O), or intragastrically administered to C57BL/6N mice or CD-1 mice (either fasted overnight or fed). For intravenous injection, blood 50 μL was collected via the cheek vein puncture at 0 h (pre-administration), 0.083, 0.25, 0.5, 1, 2, 4, 6, 8, and 24 h after administration, and placed in an anticoagulant tube added with heparin sodium. The mixture was thoroughly vortexed and mixed, and centrifuged at 6000 g for 3 minutes at 2-8° C. For oral administration, blood was collected via the cheek vein puncture at 0 h (pre-administration), 0.083, 0.25, 0.5, 1, 2, 4, 6, 8, and 24 h after administration, and placed in an anticoagulant tube added with heparin sodium. The mixture was thoroughly vortexed and mixed, and centrifuged at 6000 g for 3 minutes at 2-8° C. Plasma concentrations were determined by LC-MS/MS method, and relevant pharmacokinetic parameters were calculated using Phoenix WinNonlin8.2.0 pharmacokinetic software with non-compartmental model linear-log trapezoidal method.
• The test compounds, as clear solutions, were administered intravenously through the tail vein to CD-1 mice (fasted overnight) (vehicle: 10% DMSO/10% solutol/80% H2O or 5% DMSO/10% solutol/85% H2O), or intragastrically administered to CD-1 mice (fasted overnight). For intravenous injection, blood was collected via the saphenous vein puncture at 0 h (pre-administration), 0.083, 0.25, 0.5, 1, 2, 4, 8, and 24 h after administration, and placed in a EDTA-K2 anticoagulant tube. The mixture was thoroughly vortexed and mixed, and centrifuged at 3200 g for 10 minutes at 4° C. to obtain plasma. For oral administration, blood was collected via the saphenous vein puncture at 0 h (pre-administration), 0.083, 0.25, 0.5, 1, 2, 4, 8, and 24 h after administration, and placed in a EDTA-K2 anticoagulant tube. The mixture was thoroughly vortexed and mixed, and centrifuged at 3200 g for 10 minutes at 4° C. to obtain plasma. Plasma concentrations were determined by LC-MS/MS method, and relevant pharmacokinetic parameters were calculated using Phoenix WinNonlin 6.3 pharmacokinetic software with non-compartmental model linear-log trapezoidal method.

T2 sequence (Q13422 whole entry): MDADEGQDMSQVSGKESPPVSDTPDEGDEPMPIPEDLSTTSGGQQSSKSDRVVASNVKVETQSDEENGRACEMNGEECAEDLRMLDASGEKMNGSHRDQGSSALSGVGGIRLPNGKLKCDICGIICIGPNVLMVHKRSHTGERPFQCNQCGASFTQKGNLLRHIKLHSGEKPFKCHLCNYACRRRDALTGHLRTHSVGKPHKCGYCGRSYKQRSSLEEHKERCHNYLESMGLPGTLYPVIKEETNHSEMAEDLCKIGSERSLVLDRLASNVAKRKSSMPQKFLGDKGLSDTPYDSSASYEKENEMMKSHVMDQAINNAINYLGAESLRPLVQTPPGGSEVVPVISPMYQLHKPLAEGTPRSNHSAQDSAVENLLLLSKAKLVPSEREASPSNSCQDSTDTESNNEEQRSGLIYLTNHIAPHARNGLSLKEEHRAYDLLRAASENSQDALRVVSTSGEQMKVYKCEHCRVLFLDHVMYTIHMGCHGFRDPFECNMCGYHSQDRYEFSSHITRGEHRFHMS
T2 sequence (Q96SW2 whole entry): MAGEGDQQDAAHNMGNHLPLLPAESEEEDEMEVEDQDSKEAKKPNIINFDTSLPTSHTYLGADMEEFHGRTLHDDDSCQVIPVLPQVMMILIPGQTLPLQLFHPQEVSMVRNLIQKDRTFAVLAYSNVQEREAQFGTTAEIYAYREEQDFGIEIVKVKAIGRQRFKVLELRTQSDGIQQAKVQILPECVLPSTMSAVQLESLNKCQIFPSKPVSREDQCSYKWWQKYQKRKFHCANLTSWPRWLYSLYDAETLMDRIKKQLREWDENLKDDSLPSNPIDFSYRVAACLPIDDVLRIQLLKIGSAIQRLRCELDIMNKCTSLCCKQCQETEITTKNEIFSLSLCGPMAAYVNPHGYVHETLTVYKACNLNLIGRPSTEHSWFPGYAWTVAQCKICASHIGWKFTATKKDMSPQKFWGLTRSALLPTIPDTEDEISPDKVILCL
T2 sequence (Q16531 whole entry partner): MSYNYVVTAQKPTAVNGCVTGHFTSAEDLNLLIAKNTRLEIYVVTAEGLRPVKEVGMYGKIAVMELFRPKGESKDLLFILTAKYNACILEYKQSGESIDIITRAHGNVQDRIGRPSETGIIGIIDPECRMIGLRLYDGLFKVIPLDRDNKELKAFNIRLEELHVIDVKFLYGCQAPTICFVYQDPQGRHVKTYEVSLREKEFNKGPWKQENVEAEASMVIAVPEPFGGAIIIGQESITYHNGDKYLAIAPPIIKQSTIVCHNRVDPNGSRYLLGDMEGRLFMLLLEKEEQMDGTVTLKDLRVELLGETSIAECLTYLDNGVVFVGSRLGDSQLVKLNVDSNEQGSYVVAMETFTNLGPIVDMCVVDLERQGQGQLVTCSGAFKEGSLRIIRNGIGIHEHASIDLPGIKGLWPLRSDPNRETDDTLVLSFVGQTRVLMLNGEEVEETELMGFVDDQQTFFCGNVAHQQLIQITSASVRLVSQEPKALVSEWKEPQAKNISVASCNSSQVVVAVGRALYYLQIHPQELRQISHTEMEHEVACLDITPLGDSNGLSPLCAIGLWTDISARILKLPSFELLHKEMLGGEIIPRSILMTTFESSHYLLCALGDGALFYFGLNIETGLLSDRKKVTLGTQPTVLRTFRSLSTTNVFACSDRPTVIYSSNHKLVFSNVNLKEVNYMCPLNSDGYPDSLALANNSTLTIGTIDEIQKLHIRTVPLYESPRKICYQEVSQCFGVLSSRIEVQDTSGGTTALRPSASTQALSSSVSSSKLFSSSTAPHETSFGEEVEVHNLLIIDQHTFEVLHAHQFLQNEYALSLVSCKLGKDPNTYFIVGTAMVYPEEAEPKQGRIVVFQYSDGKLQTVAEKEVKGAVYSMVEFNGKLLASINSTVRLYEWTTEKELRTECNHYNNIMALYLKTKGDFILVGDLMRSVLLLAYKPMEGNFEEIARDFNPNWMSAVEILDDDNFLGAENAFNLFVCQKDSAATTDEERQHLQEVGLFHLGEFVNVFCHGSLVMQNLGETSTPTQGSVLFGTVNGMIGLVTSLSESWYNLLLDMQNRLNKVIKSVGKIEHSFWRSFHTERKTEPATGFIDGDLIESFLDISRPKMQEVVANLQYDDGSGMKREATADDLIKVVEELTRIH

Row | Structure (SMILES) | DC50 (IRAK4) [µM] | Dmax (IRAK4) [%] | DC50 (IKZF1) [µM] | Dmax (IKZF1) [%] | Area under drug-time curve (0-inf) [1] [µM·h] | Peak concentration [1] [µM] | Time to peak concentration [1] [h]
1 | O=C1CCC(c2coc3ccc(NC(=O)CN4CCN(C[C@H]5CC[C@H](n6cc(NC(=O)c7coc(-c8ccnc(NCC9CC9)c8)n7)c(C(F)F)n6)CC5)CC4)cc23)C(=O)N1 (some centres unmarked) [Hydrochloride of WX001] | 0.0764 | 54.3 | – | – | – | – | –
2 | CN(CCCOCCCc1ccc2c(ccc3onc(C4CCC(=O)NC4=O)c32)c1)C[C@H]1CC[C@H](n2cc(NC(=O)c3coc(-c4ccnc(NCC5CC5)c4)n3)c(C(F)F)n2)CC1 (some centres unmarked) [Hydrochloride of WX016] | 0.0707 | 93.1 | 0.00602 | 81.6 | – | – | –
3 | CC(C)(O)c1cc2nc([C@H]3CC[C@H](CN4CC5(CC(CCNc6ccc7c(ccc8onc(C9CCC(=O)NC9=O)c87)c6)C5)C4)CC3)sc2cc1NC(=O)c1cccc(C(F)(F)F)n1 (some centres unmarked) [WX021] | – | – | 0.00266 | 87.6 | – | – | –
4 | O=C1CCC(c2coc3ccc4cc(NC(=O)CN5CCN(C[C@H]6CC[C@H](n7cc(NC(=O)c8coc(-c9ccnc(NCC%10CC%10)c9)n8)c(C(F)F)n7)CC6)CC5)ccc4c23)C(=O)N1 (some centres unmarked) [WX007] | 0.0351 | 97.4 | – | – | – | – | –
5 | CC(C)(O)c1cc2nc([C@H]3CC[C@H](CN4CCC(C(F)(F)C(=O)Nc5cccc6c(C7CCC(=O)NC7=O)noc56)CC4)CC3)sc2cc1NC(=O)c1cccc(C(F)(F)F)n1 (some centres unmarked) [Formate of WX023] | 0.00716 | 114 | 0.0313 | 57.2 | – | – | –
6 | CC(C)(O)c1cc2nc([C@H]3CC[C@H](CN4CCC(C(F)(F)C(=O)Nc5cccc6c5ccc5onc(C7CCC(=O)NC7=O)c56)CC4)CC3)sc2cc1NC(=O)c1cccc(C(F)(F)F)n1 (some centres unmarked) [Formate of WX019] | 0.0151 | 92 | – | – | 5.10 | 0.34 | 3.33
7 | CN(CCCOCCCc1ccc2c(ccc3occ(C4CCC(=O)NC4=O)c32)c1)C[C@H]1CC[C@H](n2cc(NC(=O)c3coc(-c4ccnc(NCC5CC5)c4)n3)c(C(F)F)n2)CC1 (some centres unmarked) [Hydrochloride of WX008] | 0.122 | 82.2 | 0.00466 | 81.4 | – | – | –
8 | O=C1CCC(c2noc3ccc4cc(NC(=O)CN5CCN(CC6CCC(n7cc(NC(=O)c8coc(-c9ccnc(NCC%10CC%10)c9)n8)c(C(F)F)n7)CC6)CC5)ccc4c23)C(=O)N1 (centres unmarked) [Hydrochloride of WX015] | 0.0471 | 100 | 0.0077 | 81.8 | – | – | –
9 | O=C1CCC(c2noc3c(NC(=O)C(F)(F)C4CCN(C[C@H]5CC[C@H](n6cc(NC(=O)c7coc(-c8ccnc(NCC9CC9)c8)n7)c(C(F)F)n6)CC5)CC4)cccc23)C(=O)N1 (some centres unmarked) [Formate of WX024] | 0.00175 | 117 | 0.0352 | 60.8 | – | – | –
10 | CN(CCCOCCCc1cccc2c1ccc1occ(C3CCC(=O)NC3=O)c12)CC1CCC(n2cc(NC(=O)c3coc(-c4ccnc(NCC5CC5)c4)n3)c(C(F)F)n2)CC1 (centres unmarked) [Trifluoroacetate of WX010] | 0.0502 | 81.7 | – | – | – | – | –
11 | CN(CCCOCCCc1cccc2c1ccc1onc(C3CCC(=O)NC3=O)c12)CC1CCC(n2cc(NC(=O)c3coc(-c4ccnc(NCC5CC5)c4)n3)c(C(F)F)n2)CC1 (centres unmarked) [Hydrochloride of WX013] | 0.0487 | 101 | – | – | – | – | –
